# From patent US8912188B2, “Substituted quinoxaline carboxylic acids for the inhibition of PASK” (BioEnergenix, LLC, priority 2011, dated 2014)
# Legend:
# [1] = target: T1, PASK (Invitrogen) (Homo sapiens, UniProt Q96RG2); experiment: PAS Kinase FRET Assay; assay type: biochemical; details: PAS kinase TR-FRET assay (665 nm/615 nm), 2 hours at 25° C.; read-out: IC50 Kinase Domain
# T1 construct: IC50 Kinase Domain; purchased Invitrogen
# [2] = In vivo pharmacokinetics in the Sprague Dawley rat; details: for bioavailability / half-life: blood; for bioavailability: po, 10 mg/kg; for bioavailability / half-life / volume of distribution: summary of Table 3; for t1/2 (half-life): intravenous 3 mg/kg (1 mg/kg for Example 105), oral 10 mg/kg; for Cl (clearance) / Vss (volume of distribution): intravenous via tail vein, 3 mg/kg (1 mg/kg for Example 105); for Tmax (time to maximum blood concentration after an oral dose): oral gavage 10 mg/kg; for F (oral bioavailability): oral gavage 10 mg/kg vs intravenous 3 mg/kg (1 mg/kg for Example 105)
# Procedure: Pharmacokinetics of a PASK Inhibitor
# The test compounds were formulated in polyethylene glycol and beta cyclodextrin in water for administration at 1 mg/kg for Example 105, and at 3 mg/kg for Example 14, 15, and 18 for intravenous administration via the tail vein and 10 mg/kg for oral administration by gavage. Blood samples were collected at 0.083, 0.25, 0.5, 1, 2, 4, 6, 8, and 24 hours and the samples were analyzed for test compounds content using LC/MS/MS. The data was submitted to pharmacokinetic analysis using WinNonLin software and the observed and calculated pharmacokinetic parameters are shown in Table 3 for each compound.
# [3] = target: T2, PASK (UniProt #Q96RG2; human recombinant N-terminal GST tagged construct, residues 879-1323) (Homo sapiens, UniProt Q96RG2); experiment: PASK ATP Radiochemical Assay; assay type: biochemical; details: 33P-ATP, Myelin Basic Protein substrate, 120 min at room temperature, read-out: IC50 Kinase Domain
# T2 construct: human recombinant N-terminal GST tagged construct, residues 879-1323; GST (N); host or cells: insect cells
# Procedure: Biochemical Assay for hPASK Activity
# PASK ATP Radiochemical Assay
# Test compounds in DMSO are then added and the mixture, followed by delivery of ^33P-ATP (specific activity 0.01 μCi/μl final) to initiate the reaction. […] The entire reaction mixture is washed through onto a P81 Phosphocellulose paper and washed three times for 10 minutes in 75 mM phosphoric acid and once in methanol prior to drying and scintillation counting.
# T2 sequence (Q96RG2 879-1323, stated change not applied): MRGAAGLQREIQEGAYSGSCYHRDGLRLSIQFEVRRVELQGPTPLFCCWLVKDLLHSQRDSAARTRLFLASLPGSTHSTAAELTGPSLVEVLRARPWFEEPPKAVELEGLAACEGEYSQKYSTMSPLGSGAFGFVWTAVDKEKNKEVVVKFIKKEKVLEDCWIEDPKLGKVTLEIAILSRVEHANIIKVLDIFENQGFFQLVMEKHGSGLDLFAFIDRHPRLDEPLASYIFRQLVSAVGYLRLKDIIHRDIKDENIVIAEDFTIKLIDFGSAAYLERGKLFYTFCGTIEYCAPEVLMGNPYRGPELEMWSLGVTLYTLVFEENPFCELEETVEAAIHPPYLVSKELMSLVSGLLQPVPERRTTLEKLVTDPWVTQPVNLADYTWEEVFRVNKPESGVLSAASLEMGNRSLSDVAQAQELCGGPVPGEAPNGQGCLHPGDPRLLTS
# T1 sequence (Q96RG2 999-1251 limits assumed): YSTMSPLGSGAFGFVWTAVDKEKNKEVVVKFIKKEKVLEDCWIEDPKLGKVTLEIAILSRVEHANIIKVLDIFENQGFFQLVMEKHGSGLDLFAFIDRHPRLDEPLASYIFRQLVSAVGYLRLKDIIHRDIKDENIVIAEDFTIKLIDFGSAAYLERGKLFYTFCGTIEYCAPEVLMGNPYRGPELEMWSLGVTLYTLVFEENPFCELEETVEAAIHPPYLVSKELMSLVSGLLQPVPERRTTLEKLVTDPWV
IC50 [1] [µM],IC50 [3] [µM],Structure (SMILES),further results
< 10,< 10,"CC(C)N(C)c1nc2cc(C(=O)O)ccc2nc1-c1ccc(-c2ccccc2)o1 [Example 77, 3-[Methyl(propan-2-yl)amino]-2-(5-phenylfuran-2-yl)quinoxaline-6-carboxylic acid]",–
< 10,< 10,"Cc1c[nH]c2ccc(-c3nc4ccc(C(=O)O)cc4nc3N(C)C(C)C)cc12 [Example 86, 3-(Isopropyl(methyl)amino)-2-(3-methyl-1H-indol-5-yl)quinoxaline-6-carboxylic acid]",–
< 10,< 10,"C[C@H]1CCCN1c1nc2cc(C(=O)O)c(O)cc2nc1-c1ccc2[nH]ncc2c1 [Example 93, (S)-7-Hydroxy-2-(1H-indazol-5-yl)-3-(2-methylpyrrolidin-1-yl)quinoxaline-6-carboxylic acid]",–
< 10,< 10,"CC[C@H](C)N(C)c1nc2cc(C(=O)O)ccc2nc1-c1ccc(F)cc1 [Example 104, (S)-3-(sec-Butyl(methyl)amino)-2-(4-fluorophenyl)quinoxaline-6-carboxylic acid]",–
< 10,< 10,"CN(c1nc2cc(C(=O)O)ccc2nc1-c1ccc(F)cc1)C(C)(C)C [Example 107, 3-(tert-Butyl(methyl)amino)-2-(4-fluorophenyl)quinoxaline-6-carboxylic acid]",–
< 10,< 10,"CCN(c1nc2cc(C(=O)O)ccc2nc1-c1ccc(F)cc1)C(C)C [Example 111, 3-(Ethyl(isopropyl)amino)-2-(4-fluorophenyl)quinoxaline-6-carboxylic acid]",–
< 10,< 10,"CCN(c1nc2cc(C(=O)O)ccc2nc1-c1ccc(F)cc1)C1CCCCC1 [Example 112, 3-[Cyclohexyl(ethyl)amino]-2-(4-fluorophenyl)quinoxaline-6-carboxylic acid]",–
< 10,< 10,"C[C@H]1CCCN1c1nc2cc(C(=O)O)ccc2nc1-c1ccc(F)cc1F [Example 115, (S)-2-(2,4-Difluorophenyl)-3-(2-methylpyrrolidin-1-yl)quinoxaline-6-carboxylic acid]",–
< 10,< 10,"C[C@@H]1CCCCN1c1nc2cc(C(=O)O)ccc2nc1-c1ccc(F)cc1 [Example 121, (R)-2-(4-Fluorophenyl)-3-(2-methylpiperidin-1-yl)quinoxaline-6-carboxylic acid]",–
< 10,< 10,"CN(c1nc2cc(C(=O)O)ccc2nc1-c1ccc(F)cc1)C1CCCC1 [Example 135, 3-(Cyclopentyl(methyl)amino)-2-(4-fluorophenyl)quinoxaline-6-carboxylic acid]",–

# More lines, now with the values behind:
Structure (SMILES),IC50 [1] [µM],IC50 [3] [µM],further results
"C[C@H]1CCCN1c1nc2cc(C(=O)O)ccc2nc1-c1cc2ccccc2o1 [Example 14, (S)-2-(Benzofuran-2-yl)-3-(2-methylpyrrolidin-1-yl)quinoxaline-6-carboxylic acid]",< 10,< 10,bioavailability [2]: ≥ 63%; half-life [2]: ≥ 3 h; t1/2 (half-life) [2]: 3.68 h; Cl (clearance) [2]: 1.72 mL/min/kg; Vss (volume of distribution) [2]: 0.362 L/kg; Tmax (time to maximum blood concentration after an oral dose) [2]: 6 h; F (oral bioavailability) [2]: 63.4%; volume of distribution [2]: low
"CN(c1nc2cc(C(=O)O)ccc2nc1-c1cc2ccccc2o1)C1CC1 [Example 15, 2-(Benzofuran-2-yl)-3-(cyclopropyl(methyl)amino)quinoxaline-6-carboxylic acid]",< 10,< 10,bioavailability [2]: ≥ 63%; half-life [2]: ≥ 3 h; t1/2 (half-life) [2]: 3.39 h; Cl (clearance) [2]: 1.4 mL/min/kg; Vss (volume of distribution) [2]: 0.347 L/kg; Tmax (time to maximum blood concentration after an oral dose) [2]: 6 h; F (oral bioavailability) [2]: 79%; volume of distribution [2]: low
"CC(C)N(C)c1nc2cc(C(=O)O)ccc2nc1-c1cc2cc(F)ccc2o1 [Example 18, 2-(5-Fluorobenzofuran-2-yl)-3-(isopropyl(methyl)amino)quinoxaline-6-carboxylic acid]",< 10,< 10,bioavailability [2]: ≥ 63%; half-life [2]: ≥ 3 h; t1/2 (half-life) [2]: 7.72 h; Cl (clearance) [2]: 1.33 mL/min/kg; Vss (volume of distribution) [2]: 0.366 L/kg; Tmax (time to maximum blood concentration after an oral dose) [2]: 8 h; F (oral bioavailability) [2]: 74.8%; volume of distribution [2]: low
"Cc1cc2cc(-c3nc4ccc(C(=O)O)cc4nc3N3CCC[C@@H]3C)ccc2[nH]1 [Example 75, 2-(2-Methyl-1H-indol-5-yl)-3-[(2S)-2-methylpyrrolidin-1-yl]quinoxaline-6-carboxylic acid]",< 10,< 10,–
"Cc1cc2cc(-c3nc4ccc(C(=O)O)cc4nc3N(C)C(C)C)ccc2[nH]1 [Example 76, 3-[Methyl(propan-2-yl)amino]-2-(2-methyl-M-indol-5-yl)quinoxaline-6-carboxylic acid]",< 10,< 10,–
"CC(C)N(C)c1nc2cc(C(=O)O)ccc2nc1-c1cc[nH]c1 [Example 81, 3-[Methyl(propan-2-yl)amino]-2-(1H-pyrrol-3-yl)quinoxaline-6-carboxylic acid]",< 10,< 10,–
"Cc1coc2ccc(-c3nc4ccc(C(=O)O)cc4nc3N(C)C(C)C)cc12 [Example 85, 3-[Methyl(propan-2-yl)amino]-2-(3-methyl-1-benzofuran-5-yl)quinoxaline-6-carboxylic acid]",< 10,< 10,–
"C[C@@H]1CCCN1c1nc2cc(C(=O)O)ccc2nc1-c1ccc2c(c1)OCO2 [Example 87, (R)-2-(Benzo[d][1,3]dioxol-5-yl)-3-(2-methylpyrrolidin-1-yl)quinoxaline-6-carboxylic acid]",< 10,< 10,–
"Cc1cc2cc(-c3nc4ccc(C(=O)O)cc4nc3N3CCCC[C@@H]3C)ccc2[nH]1 [Example 88, (S)-2-(2-Methyl-1H-indol-5-yl)-3-(2-methylpiperidin-1-yl)quinoxaline-6-carboxylic acid]",< 10,< 10,–
"Cc1cc2cc(-c3nc4ccc(C(=O)O)cc4nc3N(C)C3CC3)ccc2[nH]1 [Example 89, 3-[Cyclopropyl(methyl)amino]-2-(2-methyl-1H-indol-5-yl)quinoxaline-6-carboxylic acid]",< 10,< 10,–
"O=C(O)c1ccc2nc(-c3ccc(F)cc3)c(N3CCCC[C@@H]3C(F)(F)F)nc2c1 [Example 106, 2-(4-Fluorophenyl)-3-[(2R)-2-(trifluoromethyl)piperidin-1-yl]quinoxaline-6-carboxylic acid]",< 10,< 10,–
"CN(c1nc2cc(C(=O)O)ccc2nc1-c1ccc(F)cc1)C1CCCCC1 [Example 108, 3-(Cyclohexyl(methyl)amino)-2-(4-fluorophenyl)quinoxaline-6-carboxylic acid]",< 10,< 10,–
"CCN(CC)c1nc2cc(C(=O)O)ccc2nc1-c1ccc(F)cc1 [Example 113, 3-(Diethylamino)-2-(4-fluorophenyl)quinoxaline-6-carboxylic acid]",< 10,< 10,–
"C[C@H]1CCCCN1c1nc2cc(C(=O)O)ccc2nc1-c1ccc(F)cc1F [Example 116, (S)-2-(2,4-Difluorophenyl)-3-(2-methylpiperidin-1-yl)quinoxaline-6-carboxylic acid]",< 10,< 10,–
"CC(C)N(C)c1nc2cc(C(=O)O)c(O)cc2nc1-c1ccc(F)cc1 [Example 120, 2-(4-Fluorophenyl)-7-hydroxy-3-(isopropyl(methyl)amino)quinoxaline-6-carboxylic acid]",< 10,< 10,–
"CCCN(CCC)c1nc2cc(C(=O)O)ccc2nc1-c1ccc(F)cc1 [Example 140, 3-(Dipropylamino)-2-(4-fluorophenyl)quinoxaline-6-carboxylic acid]",< 10,< 10,–
"CN(c1nc2cc(C(=O)O)ccc2nc1-c1ccc(F)cc1)C1CCC1 [Example 146, 3-(Cyclobutyl(methyl)amino)-2-(4-fluorophenyl)quinoxaline-6-carboxylic acid]",< 10,< 10,–
"CC(C)N(C)c1nc2cc(C(=O)O)ccc2nc1-c1ccc(F)cc1F [Example 147, 2-(2,4-Difluorophenyl)-3-[methyl(propan-2-yl)amino]quinoxaline-6-carboxylic acid]",< 10,< 10,–
"C[C@H]1CCCN1c1nc2cc(C(=O)O)ccc2nc1-c1ccc(F)c(F)c1 [Example 148, (S)-2-(3,4-Difluorophenyl)-3-(2-methylpyrrolidin-1-yl)quinoxaline-6-carboxylic acid]",< 10,< 10,–
"CC(=O)Nc1ccc(-c2nc3ccc(C(=O)O)cc3nc2N(C)C(C)C)cc1 [Example 149, 2-(4-Acetamidophenyl)-3-[methyl(propan-2-yl)amino]quinoxaline-6-carboxylic acid]",< 10,< 10,–
